# Reference: PubChem BioAssay (NCI)
#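 Growth conditions: 96-well plates. Treatment: test compound, 48 hours, 5 concentrations. Analysis: linear interpolation between bracketing concentrations; unreached endpoints set to highest concentration. GI50 is the concentration that inhibits growth by half. TGI is the concentration that stops growth completely.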
# Assays:
# P388 leukemia = assay: NCI tumour cell line growth inhibition, 48 h
# P388/ADR leukemia = assay: NCI tumour cell line growth inhibition, 48 h
smiles,measurement,setting,value
O=C(O)C1(C(=O)O)CCC1.[NH2-].[NH2-].[Pt+2],GI50,P388 leukemia,15.4 µM
same,TGI,P388 leukemia,169 µM
same,GI50,P388/ADR leukemia,33.3 µM
same,TGI,P388/ADR leukemia,218 µM
